The values below come from ChEMBL document CHEMBL1201862, “PubChem BioAssay data set” (2004).

Among the test systems are COLO 205; OVCAR-3; SF-268; HL-60; UO-31; A498; SN12C; SK-OV-3; OVCAR-4; RXF 393; RPMI-8226; UACC-257; HCC 2998; HOP-92; NCI-H460; SW-620; M14; UACC-62.
Common to all, as to test: growth of human tumour cells (NCI), 48 h

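1) Cells in 96-well plates. 2) Compound, 48 h, 5 concentrations. 3) Linear interpolation between surrounding doses. 4) Unreached endpoint = highest concentration. GI50 = concentration required for 50% inhibition of growth.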 Calls of active or inactive are those of the source. Cut-off read from the data, not from the text of the source: active = GI50 up to about 1.1 µM and inactive = higher.

Consider `COC(=O)c1c(N)n[nH]c1N`, for which the GI50 with COLO 205, in the experiment with OVCAR-3, with SF-268, in the experiment with HL-60, with UO-31 and with A498 was > 100 µM (inactive) throughout. Besides, the GI50 with SN12C, with SK-OV-3, with OVCAR-4, in the experiment on RXF 393, with RPMI-8226 and in the experiment on UACC-257 was > 100 µM (inactive) each time. In addition, the GI50 with HCC 2998 was > 100 µM (inactive); with HOP-92, > 100 µM (inactive); in the experiment on NCI-H460, > 100 µM (inactive); in the experiment with SW-620, > 100 µM (inactive); in the experiment on M14, > 100 µM (inactive); with UACC-62 it was 77.6 µM (inactive).

For `NC(=S)N/N=C1\C(=O)N(CCc2ccccc2)C(=O)C1C(=O)NCCc1ccccc1` (configuration not stated), the GI50 in the experiment on COLO 205, in the experiment on OVCAR-3, in the experiment on SF-268, in the experiment with UO-31, with A498 and with SN12C was > 100 µM (inactive) in each case. Moreover, the GI50 with SK-OV-3, with OVCAR-4, in the experiment on RXF 393, in the experiment on RPMI-8226, with UACC-257 and with HCC 2998 was > 100 µM (inactive) each time. Besides, the GI50 in the experiment on HOP-92, in the experiment on NCI-H460, in the experiment with SW-620, in the experiment with M14 and in the experiment with UACC-62 was > 100 µM (inactive) each time.

As for `CCO/C=C1\N=C(c2ccc(Cl)c(Cl)c2)OC1=O`, the GI50 in the experiment with COLO 205 is > 100 µM (inactive); in the experiment on OVCAR-3, > 100 µM (inactive); in the experiment on SF-268 it was > 100 µM (inactive); with HL-60, > 100 µM (inactive); in the experiment on UO-31 it was 36.6 µM (inactive); in the experiment with A498, 27 µM (inactive). The GI50 was > 100 µM (inactive) with SN12C; > 100 µM (inactive) in the experiment on OVCAR-4; 79.8 µM (inactive) in the experiment on RXF 393; > 100 µM (inactive) in the experiment on RPMI-8226; > 100 µM (inactive) with UACC-257; > 100 µM (inactive) in the experiment with HCC 2998. In addition, the GI50 with HOP-92, in the experiment with NCI-H460, in the experiment on SW-620, in the experiment on M14 and in the experiment with UACC-62 was > 100 µM (inactive) throughout.

For the compound `Cc1cc(Cl)ccc1NC(=O)C1C(=O)N(c2ccc(Cl)cc2C)C(=O)/C1=N\N` (configuration not stated), the GI50 in the experiment on COLO 205 is 56.4 µM (inactive); in the experiment with OVCAR-3, 30.8 µM (inactive); with SF-268 it was 26.5 µM (inactive); with HL-60 it was 24.5 µM (inactive); in the experiment with UO-31, 33 µM (inactive); in the experiment with A498, 28.3 µM (inactive). Moreover, the GI50 with SN12C was 36.6 µM (inactive); in the experiment with SK-OV-3, 97.5 µM (inactive); in the experiment with OVCAR-4, 83.2 µM (inactive); with RXF 393 it was > 100 µM (inactive); in the experiment on RPMI-8226 it was 25.4 µM (inactive); in the experiment on UACC-257 it was > 100 µM (inactive). Also, the GI50 in the experiment with HCC 2998 was 24.9 µM (inactive); in the experiment on HOP-92 it was 34.7 µM (inactive); with NCI-H460, 51.6 µM (inactive); in the experiment on SW-620, 42.4 µM (inactive); in the experiment with M14, 61.2 µM (inactive); with UACC-62 it was 35.8 µM (inactive).

Consider `c1ccc2c(c1)[nH]c1c[nH]c3c4cccnc4nc-3c12`, for which the GI50 is 15 µM (inactive) in the experiment on COLO 205; 17.1 µM (inactive) with OVCAR-3; 19.7 µM (inactive) with SF-268; 17.5 µM (inactive) with HL-60; 15.3 µM (inactive) in the experiment with UO-31; 33.3 µM (inactive) with A498. For the same compound, the GI50 is 18.6 µM (inactive) with SN12C; 18.2 µM (inactive) with OVCAR-4; 18.7 µM (inactive) in the experiment on RXF 393; 25.3 µM (inactive) in the experiment with RPMI-8226; 23.9 µM (inactive) with UACC-257; 19 µM (inactive) in the experiment with HCC 2998. The GI50 was 28.2 µM (inactive) in the experiment on HOP-92; 21.5 µM (inactive) with NCI-H460; 18.1 µM (inactive) with SW-620; 15 µM (inactive) with M14; 15.1 µM (inactive) in the experiment with UACC-62.

In the case of `CCOC(=O)/C(O)=C(/c1n[nH]c(=O)c2ccccc12)[N+](=O)[O-]`, the GI50 with COLO 205, in the experiment on OVCAR-3, in the experiment with SF-268, with HL-60, with UO-31 and in the experiment with A498 was > 100 µM (inactive) in each case. The GI50 in the experiment with SN12C, with SK-OV-3, with OVCAR-4, in the experiment on RXF 393, with RPMI-8226 and in the experiment on UACC-257 was > 100 µM (inactive) each time. Also, the GI50 in the experiment on HCC 2998, in the experiment on HOP-92, in the experiment on NCI-H460, in the experiment on SW-620, in the experiment with M14 and with UACC-62 was > 100 µM (inactive) each time.

Regarding `C=C1C(=O)OC2/C=C(\C)C(OC(C)=O)C3OC3C(C)(O)CC(OC(=O)/C(C)=C/C)C12` (configuration not stated), the GI50 in the experiment with COLO 205 was 3.86 µM (inactive); with OVCAR-3, 3.9 µM (inactive); with SF-268, 10.9 µM (inactive); in the experiment with HL-60, 2.51 µM (inactive); in the experiment on UO-31 it was 11 µM (inactive); with A498 it was 15.8 µM (inactive). For the same compound, the GI50 in the experiment on SN12C is 20 µM (inactive); in the experiment with SK-OV-3, 20.1 µM (inactive); in the experiment on OVCAR-4 it was 33.8 µM (inactive); in the experiment on RXF 393, 3.85 µM (inactive); with RPMI-8226, 4.91 µM (inactive); in the experiment with UACC-257 it was 14.7 µM (inactive). The GI50 was 8.38 µM (inactive) in the experiment on HCC 2998; 5.52 µM (inactive) in the experiment with HOP-92; 15.7 µM (inactive) in the experiment with NCI-H460; < 0.01 µM (active) in the experiment on SW-620; 4.65 µM (inactive) in the experiment with M14; 11 µM (inactive) with UACC-62.

Regarding `COc1cc(Cl)c2c3c(c(C(=O)c4ccccc4)oc13)CCC2`, the GI50 is > 100 µM (inactive) in the experiment with COLO 205; > 100 µM (inactive) with OVCAR-3; 53.6 µM (inactive) in the experiment on HL-60; > 100 µM (inactive) in the experiment on A498; > 100 µM (inactive) in the experiment on SN12C; > 100 µM (inactive) in the experiment on SK-OV-3. For the same compound, the GI50 in the experiment with OVCAR-4 is > 100 µM (inactive); with RXF 393 it was 62.5 µM (inactive); with RPMI-8226 it was > 100 µM (inactive); in the experiment on UACC-257, > 100 µM (inactive); in the experiment on HCC 2998, > 100 µM (inactive); in the experiment with HOP-92, < 0.01 µM (active). The GI50 in the experiment with NCI-H460, in the experiment with SW-620, with M14 and in the experiment with UACC-62 was > 100 µM (inactive) throughout.

For `CN(CC1NCCCC1O)C12CC3CC(CC(C3)C1)C2` (configuration not stated), the GI50 with COLO 205, with OVCAR-3, with SF-268, in the experiment on HL-60, in the experiment on UO-31 and in the experiment with A498 was > 100 µM (inactive) in each case. Further, the GI50 in the experiment on SN12C, in the experiment on SK-OV-3, in the experiment with OVCAR-4, in the experiment on RPMI-8226, with UACC-257 and with HCC 2998 was > 100 µM (inactive) each time. In addition, the GI50 with HOP-92, in the experiment on NCI-H460, with SW-620, with M14 and in the experiment with UACC-62 was > 100 µM (inactive) in each case.

Regarding `O=c1cc(CO)oc2c3c(cc(O)c12)OCC(COC1OC(CO)C(O)C(O)C1O)=CC3` (configuration not stated), the GI50 in the experiment with COLO 205, with OVCAR-3, in the experiment with SF-268, with HL-60, in the experiment on UO-31 and with A498 was > 100 µM (inactive) throughout. Moreover, the GI50 in the experiment on SN12C, in the experiment with SK-OV-3, in the experiment with OVCAR-4, with RXF 393, in the experiment on RPMI-8226 and in the experiment on UACC-257 was > 100 µM (inactive) throughout. Besides, the GI50 with HCC 2998, in the experiment on HOP-92, with NCI-H460, in the experiment with SW-620, with M14 and with UACC-62 was > 100 µM (inactive) throughout.

As for `CCc1ccccc1NC(=O)CC1NC(=O)CS1` (configuration not stated), the GI50 with COLO 205, in the experiment on OVCAR-3, with SF-268, with HL-60, with UO-31 and with A498 was > 100 µM (inactive) each time. For the same compound, the GI50 with SN12C, with SK-OV-3, in the experiment with OVCAR-4, with RXF 393, in the experiment with RPMI-8226 and with UACC-257 was > 100 µM (inactive) in each case. The GI50 in the experiment on HCC 2998, with HOP-92, in the experiment with NCI-H460, in the experiment on SW-620, in the experiment on M14 and with UACC-62 was > 100 µM (inactive) in each case.
